# Experimental data reported in patent US20070276034A1, “Compounds, compositions and methods for the treatment of synucleinopathies” (priority 2002, published 2007).
# Where two headings read alike, the source gives them in different places.
# Columns and labels:
# Format in all cases: biochemical
# Aβ 1-42 fibrils = target: T1, Aβ 1-42 fibrils (Homo sapiens, UniProt P05067); assay: Thioflavin T fluorometry - disruption of pre-formed Aβ 1-42 Alzheimer's fibrils; details: 25 μM pre-fibrillized Aβ 1-42, 37° C., 3 days, read-out: % Inhibition Aβ (result ± S.D.)
# T1 construct: purchased Bachem Inc
# Description: In one study, Thioflavin T fluorometry was used to determine the effects of the compounds, and of EDTA (as a negative control). In this assay Thioflavin T binds specifically to fibrillar amyloid, and this binding produces a fluorescence enhancement at 485 nm that is directly proportional to the amount of amyloid fibrils formed. The higher the fluorescence, the greater the amount of amyloid fibrils formed (Naki et al., Lab. Invest. 65:104-110, 1991; Levine III, Protein Sci. 2:404-410, 1993; Amyloid: Int. J. Exp. Clin. Invest. 2:1-6, 1995).
# (§1) In this study, 25 μM of pre-fibrillized Aβ 1-42 (Bachem Inc) was incubated at 37° C. for 3 days either alone, or in the presence of one of the compounds or EDTA (at Aβ:test compound weight ratios of 1:1, 1:0.1, 1:0.01 or 1:0.001). Following 3-days of co-incubation, 50 μl of each incubation mixture was transferred into a 96-well microtiter plate containing 150 μl of distilled water and 50 μl of a Thioflavin T solution (i.e. 500 mM Thioflavin T in 250 mM phosphate buffer, pH 6.8). The fluorescence was read at 485 nm (444 nm excitation wavelength) using an ELISA plate fluorometer after subtraction with buffer alone or compound alone, as blank.
# IAPP fibrils [1] = target: T2, IAPP fibrils (Homo sapiens, UniProt P10997); assay: Thioflavin T fluorometry - disruption of type 2 diabetes IAPP fibrils; details: 25 μM pre-fibrillized IAPP, 37° C., 3 days, read-out: % Inhibition IAPP (result ± S.D.)
# T2 construct: purchased Bachem Inc
# T2 sequence (P10997 34-70 limits assumed): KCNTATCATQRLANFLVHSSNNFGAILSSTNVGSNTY
# Description: (§2) In this assay Thioflavin T binds specifically to fibrillar amyloid, and this binding produces a fluorescence enhancement at 485 nm that is directly proportional to the amount of IAPP fibrils present. The higher the fluorescence, the greater the amount of IAPP fibrils present (Naki et al, Lab. Invest. 65:104-110, 1991; Levine III, Protein Sci. 2:404-410, 1993; Amyloid: Int. J. Exp. Clin. Invest. 2:1-6, 1995).
# as §1, with “IAPP” for “Aβ 1-42”, “IAPP:test” for “Aβ:test”
# IAPP fibrils [2] = target: T2, IAPP fibrils; assay: Congo red binding assay with IAPP fibrils; details: 3-day incubation
# Description: In the Congo red binding assay the ability of a given test compound to alter amyloid (in this case, IAPP) binding to Congo red is quantified. In this assay, IAPP and test compounds were incubated for 3 days and then vacuum filtered through a 0.2 μm filter. The amount of IAPP retained in the filter was then quantitated following staining of the filter with Congo red. After appropriate washing of the filter, any lowering of the Congo red color on the filter in the presence of the test compound (compared to the Congo red staining of the amyloid protein in the absence of the test compound) was indicative of the test compound's ability to diminish/alter the amount of aggregated and congophilic IAPP.
# In the study, the ability of IAPP fibrils to bind Congo red in the absence or presence of increasing amounts of the compounds or EDTA (at IAPP:test compound weight ratios of 1:1, 1:0.1, 1:0.01 or 1:0.001) was determined.
# NAC fibrils = target: T3, NAC fibrils (Homo sapiens, UniProt P37840); assay: Thioflavin T fluorometry - disruption of Parkinson's disease NAC fibrils; details: 3 days; for inhibition: 25 μM pre-fibrillized NAC, 37° C., read-out: % Inhibition NAC (result ± S.D.); for disruption/disassembly of pre-formed NAC fibrils (in words): all concentrations tested (ratios 1:1 to 1:0.001)
# T3 construct: NAC is a 35-amino acid fragment of α-synuclein; purchased Bachem Inc
# Description: as §2, with “assay,” for “assay”, “NAC fibrils,” for “fibrillar amyloid,”, “NAC” for “IAPP”
# In this study, 25 μM of pre-fibrillized NAC (Bachem Inc) was incubated at 37° C. for 3 days either alone or in the presence of dihydroxy synthetic analog compounds #1, 3, 23, 26, 52, 63, 66, 67, or EDTA (at NAC:test compound weight ratios of 1:1, 1:0.1, 1:0.01 or 1:0.001). Following 3-days of co-incubation, 50 βl of each incubation mixture was transferred into a 96-well microtiter plate containing 150 μl of distilled water and 50 μl of a Thioflavin T solution (i.e. 500 mM Thioflavin T in 250 mM phosphate buffer, pH 6.8). The fluorescence was read at 485 nm (444 nm excitation wavelength) using an ELISA plate fluorometer after subtraction with buffer alone or compound alone, as blank.
# monomeric Aβ 1-42 = target: T4, monomeric Aβ 1-42 (Homo sapiens, UniProt P05067); assay: SDS-PAGE/Western blot of Aβ 1-42 after incubation with compounds; details: 25 μM pre-fibrillized Aβ 1-42, 37° C., 3 days, 0.2 μm filtrate, antibody 6E10
# T4 construct: purchased Bachem Inc
# Description: In this latter study, triplicate samples of pre-fibrillized Aβ 1-42 (25 μM) was incubated at 37° C. for 3 days, alone or in the presence of the compounds or EDTA. Five micrograms of each sample was then filtered through a 0.2 μm filter. Protein recovered from the filtrate was then loaded, and ran on a 10-20% Tris-Tricine SDS-PAGE, blotted to nitrocellulose and detected using an Aβ-antibody (clone 6E10; Senetek).
# [3] = Aβ:test compound wt/wt ratio 1:0.001
# [4] = Aβ:test compound wt/wt ratio 1:0.01
# [5] = Aβ:test compound wt/wt ratio 1:0.1
# [6] = Aβ:test compound wt/wt ratio 1:1
# [7] = IAPP:test compound wt/wt ratio 1:0.001
# [8] = IAPP:test compound wt/wt ratio 1:0.01
# [9] = IAPP:test compound wt/wt ratio 1:0.1
# [10] = IAPP:test compound wt/wt ratio 1:1
# [11] = NAC:test compound wt/wt ratio 1:0.001
# [12] = NAC:test compound wt/wt ratio 1:0.01
# [13] = NAC:test compound wt/wt ratio 1:0.1
# [14] = NAC:test compound wt/wt ratio 1:1
# T4 sequence (P05067 672-713): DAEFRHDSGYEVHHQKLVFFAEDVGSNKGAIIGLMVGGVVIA
# T1 sequence (P05067 672-713): as above
Structure (SMILES),inhibition (Aβ 1-42 fibrils; [3]),inhibition (Aβ 1-42 fibrils; [4]),inhibition (Aβ 1-42 fibrils; [5]),inhibition (Aβ 1-42 fibrils; [6]),inhibition (IAPP fibrils [1]; [7]),inhibition (IAPP fibrils [1]; [8]),inhibition (IAPP fibrils [1]; [9]),inhibition (IAPP fibrils [1]; [10]),"% Inhibition IAPP (result ± S.D.), Congo red binding (IAPP fibrils [2]; [7])","% Inhibition IAPP (result ± S.D.), Congo red binding (IAPP fibrils [2]; [8])","% Inhibition IAPP (result ± S.D.), Congo red binding (IAPP fibrils [2]; [9])","% Inhibition IAPP (result ± S.D.), Congo red binding (IAPP fibrils [2]; [10])",inhibition (NAC fibrils; [11]),inhibition (NAC fibrils; [12]),inhibition (NAC fibrils; [13]),inhibition (NAC fibrils; [14]),disruption/disassembly of pre-formed NAC fibrils (in words) (NAC fibrils),detection of Aβ 1-42 monomers (~4 kilodalton band) on Western blot (monomeric Aβ 1-42)
"Cc1nc(-c2ccc(O)c(O)c2)cc(-c2ccc(O)c(O)c2)c1C#N [Compound 8, 4,6-bis(3,4-dihydroxyphenyl)-3-cyano-2-methylpyridine]",4.9 ± 2.27%,24.7 ± 3.51%,65.5 ± 0.17%,70.8 ± 2.57%,11.4 ± 12.8%,29.6 ± 5.97%,67.8 ± 1.74%,72.8 ± 1.77%,0.0 ± 6.46%,7.2 ± 2.27%,0.0 ± 2.94%,0.0 ± 2.84%,–,–,–,–,–,–
"Oc1ccc(CN2CCN(Cc3ccc(O)c(O)c3)CC2)cc1O [Compound 9, 1,4-bis(3,4-dihydroxybenzyl)piperazine]",10.6 ± 0.93%,2 ± 10.8%,34.9 ± 1.69%,95.1 ± 0.13%,–,–,–,–,–,–,–,–,–,–,–,–,–,–
"O=C(NCc1ccc(O)c(O)c1)c1ccc(O)c(O)c1 [Compound 52, 3,4-dihydroxybenzoic acid 3,4-dihydroxybenzylamide]",0%,12.1 ± 0.78%,53.6 ± 2.42%,93.7 ± 0.41%,16 ± 8.42%,49.2 ± 4.47%,86.9 ± 3.09%,97.9 ± 0.19%,10.2 ± 0.52%,11.0 ± 3.27%,11.5 ± 1.21%,31.3 ± 0.27%,13.8 ± 10.5%,79.6 ± 6.43%,89.2 ± 1.49%,99.7 ± 1.93%,dose-dependent disruption/disassembly,–
"O=C(CCc1ccc(O)c(O)c1)Nc1ccc(O)c(O)c1 [Compound 57, 3-(3,4-dihydroxyphenyl)propionic acid 3,4-dihydroxyanilide]",17.7 ± 7.43%,19 ± 6.33%,60.2 ± 3.12%,88.4 ± 2.73%,1.9 ± 5.24%,37.3 ± 0.78%,73.2 ± 1.19%,94.1 ± 0.46%,4.5 ± 0.64%,8.5 ± 3.19%,8.9 ± 3.90%,15.7 ± 3.77%,–,–,–,–,–,–
"O=C(CCc1ccc(O)c(O)c1)NCc1ccc(O)c(O)c1 [Compound 58, 3-(3,4-dihydroxyphenyl)propionic acid 3,4-dihydroxybenzylamide]",20.5 ± 6.27%,33.2 ± 5.16%,76 ± 2.57%,94.8 ± 1.67%,8.9 ± 6.87%,48.8 ± 2.05%,87.6 ± 1.16%,98.1 ± 1.04%,0.0 ± 1.93%,4.6 ± 2.35%,0.7 ± 6.21%,24.5 ± 0.57%,–,–,–,–,–,not detected
"O=C(CCC(=O)Nc1ccc(O)c(O)c1)Nc1ccc(O)c(O)c1 [Compound 66, succinic acid bis(3,4-dihydroxyanilide)]",27.1 ± 3.51%,42 ± 2.36%,78.3 ± 4.17%,100 ± 0.68%,11.1 ± 5.28%,47.6 ± 8.16%,94 ± 2.88%,98.5 ± 0.06%,4.8 ± 1.86%,5.7 ± 4.23%,15.7 ± 2.53%,41.4 ± 3.84%,30.5 ± 9.55%,43.4 ± 3.45%,82.5 ± 5.37%,98.9 ± 0.65%,dose-dependent disruption/disassembly,not detected
"Oc1ccc(CNCc2ccc(O)c(O)c2)cc1O [Compound 73, bis(3,4-dihydroxybenzyl)amine]",0%,28.7 ± 10.3%,70.9 ± 3.04%,99.4 ± 0.42%,–,–,–,–,–,–,–,–,–,–,–,–,–,–
"Oc1ccc(CN(Cc2ccc(O)c(O)c2)Cc2ccc(O)c(O)c2)cc1O [Compound 75, tris(3,4-dihydroxybenzyl)amine]",17 ± 4.2%,31.6 ± 4.74%,84.4 ± 0.94%,99 ± 0.63%,6 ± 6.46%,43.9 ± 5.34%,90 ± 0.27%,100 ± 0.35%,2.9 ± 0.69%,11.3 ± 2.24%,7.4 ± 0.70%,49.0 ± 1.17%,–,–,–,–,–,not detected
